Read-outs that look alike come from different tables or passages of the source. Bounds are passed on as bounds.

The source of these data is publication PMC10145531, “Platinum(IV)-Loaded Degraded Glycol Chitosan as Efficient Platinum(IV) Drug Delivery Platform” (Pharmaceutics, 2023).

Data set [1] deals with SW480 (colon adenocarcinoma). Kind of data set: MTT cytotoxicity assay, SW480 cells (96 h). It is filed as cell-based, human. As for the experimental part:
(§1) Cell culture of the cell lines CH1/PA-1, SW480 and A549 was performed as described in reference. 4T1 cells were purchased from American Type Culture Collection, stored in a liquid nitrogen dewar and cultured in Roswell Park Memorial Institute (RPMI)-1640 medium supplemented with 10% foetal bovine serum (FBS) (Thermo Fisher, Waltham, MA, USA).
(§2) Cytotoxicity tests (96 h incubation) in the cell lines CH1/PA-1, SW480 and A549 were conducted as described in reference. Compounds were dissolved in supplemented minimum essential medium (MEM), except for compound C10, which was dissolved in sterile Milli-Q water.
(§3) Based on the required solubility, conjugates C1–C12 were forwarded for cytotoxicity assessments, whereas conjugates S1–S5 could not be tested due to solubility issues (Supporting Information, Table S1). The twelve substances C1–C12 were examined in comparison to the free platinum(IV) complexes and the unloaded dGC polymers with three different chain lengths for their cytotoxic activity in vitro. For this purpose, the colorimetric MTT assay was used in three human cancer cell lines (A549 (non-small-cell lung carcinoma), CH1/PA-1 (ovarian teratocarcinoma) and SW480 (colon adenocarcinoma)), yielding IC50 values in the low micromolar to nanomolar concentration range for all conjugates (Table 3, Supporting Information, Figures S18–S20). The three tested cell lines differ in their platinum sensitivity. SW480 and A549 cells are intrinsically cisplatin- and carboplatin-resistant due to their low expression of CTR1, whereas CH1/PA-1 cells show high chemosensitivity, particularly to platinum drugs.
On the technique in general: Tetrazolium dyes change colour on reduction, which living cells bring about.

A short description of data set [2]: Biodistribution study (platinum content of organs by ICP-MS) in non-tumour-bearing mice. It is filed as in vivo, Balb/C mice. As to the method:
The Animal Welfare and Ethical Review Body at University College London (UCL) authorised all animal experiments, which were performed under license from the Home Office, UK. […] All substances were applied intravenously (100 µL stock/20 g body weight) via tail vein injection. At the chosen time points, animals were culled with CO2, and the major organs (lung, heart, liver, spleen and kidneys) were collected and frozen in liquid nitrogen. The samples were transferred to the Institute of Inorganic Chemistry, University of Vienna, Austria, where the total platinum content of each sample was determined with an Agilent 7500 ICP-quadrupole MS instrument.
The major organs of liver, lung, heart, kidney and spleen were collected after two specific time points (1 h and 24 h), and the platinum content of each organ was evaluated with ICP-MS analysis (Figure 3).

In data set [3] the test system is A549 (non-small-cell lung carcinoma). Kind of data set: MTT cytotoxicity assay, A549 cells (96 h). The format is cell-based, human. As for the experimental part: as §1, §2, §3
Data set [4] relates to CH1/PA-1 (ovarian teratocarcinoma). Kind of data set: MTT cytotoxicity assay, CH1/PA-1 cells (96 h). It is filed as cell-based, human. As to the method:
as §1, §2, §3

For data set [5] the test system is unchanged. Also noted: method as in PMID 36432656. Particulars: MTT, 96 h; cited from earlier work.
The subject of data set [6] is A549 (non-small-cell lung carcinoma). Also noted: method as in PMID 36432656. Particulars: MTT, 96 h; cited from earlier work.
Data set [7] deals with SW480 (colon adenocarcinoma). Also noted: method as in PMID 36432656. Particulars: MTT, 96 h; cited from earlier work.
Setting [8] is: MTT, 96 h incubation, read-out: IC50 [µM] SW480.
Setting [9] is: MTT, 96 h incubation, read-out: IC50 [µM] A549.
[10] abbreviates: MTT, 96 h incubation, read-out: IC50 [µM] CH1/PA-1.
Where [11] appears, read: free platinum(IV) complexes: equals measured IC50 of Table 3, read-out: Concentration of Pt(IV) Units at IC50 [µM] CH1/PA-1.
Setting [12] is: free platinum(IV) complexes: equals measured IC50 of Table 3, read-out: Concentration of Pt(IV) Units at IC50 [µM] SW480.
The mark [13] stands for this setting: free platinum(IV) complexes: equals measured IC50 of Table 3, read-out: Concentration of Pt(IV) Units at IC50 [µM] A549.

Turning to “(OC-6-44)-Acetato(3-carboxypropanoato)(1R,2R-cyclohexane-1,2-diamine)oxalatoplatinum(IV) [compound 6]”, the IC50 in data set [1] (setting [8]) is 22 ± 8 µM; in data set [3] (setting [9]) it was 70 ± 29 µM; in data set [4] (setting [10]), 4.1 ± 0.6 µM; in data set [4] (setting [11]), 4.1 ± 0.6 µM. In data set [2] (1 h post i.v. administration, 6: 0.15 mg/100 µL, V3: 0.41 mg/100 µL), the “organ distribution of platinum (ICP-MS)” value is “highest concentrations in the excretory organs (kidney and liver)”. The “change of platinum amount in organs at 24 h vs 1 h” value in data set [2] (24 h post i.v. injection, 6: 0.15 mg/100 µL, V3: 0.41 mg/100 µL) is recorded as “only slightly raised in all systemic organs”. Moreover, the “increase of platinum amount in the kidneys after 24 h vs 1 h” value in data set [2] (i.v., 0.15 mg/100 µL (5.5 mg/kg oxaliplatin equivalent), female Balb/C mice) is 2.1 fold. In data set [2] (i.v., 6: equivalent to 5.5 mg/kg oxaliplatin, V3: equivalent to 2.75 mg/kg oxaliplatin), the tolerability in mice result was “well tolerated without signs of toxicity”.
As for “(OC-6-44)-Acetatodiammine(3-carboxypropanoato)dichloridoplatinum(IV) [compound 2]”, the IC50 in data set [1] (setting [8]) turned out to be 47 ± 10 µM; in data set [1] (setting [12]), 47 ± 10 µM; in data set [3] (setting [9]) it was 99 ± 17 µM; in data set [3] (setting [13]), 99 ± 17 µM; in data set [4] (setting [10]), 1.2 ± 0.5 µM; in data set [4] (setting [11]) it was 1.2 ± 0.5 µM.
For `N.N.O=C([O-])C1(C(=O)[O-])CCC1.[Pt+2]` [Carboplatin, carboplatin], the IC50 in data set [5] was 0.79 ± 0.11 µM; in data set [6] it was 38 ± 3 µM; in data set [7], 42 ± 10 µM.
“(OC-6-44)-Acetaodiammine(3-carboxypropanoato)(cyclobutane-1,1-dicarboxylato)platinum(IV) [compound 4]”: the IC50 in data set [1] (setting [8]) was greater than 200 µM; in data set [1] (setting [12]) it was greater than 200 µM; in data set [3] (setting [9]) it was greater than 200 µM; in data set [3] (setting [13]), greater than 200 µM; in data set [4] (setting [10]) it was 16 ± 6 µM; in data set [4] (setting [11]) it was 16 ± 6 µM.
Take `O=C1[O][Pt]2([NH][C@@H]3CCCC[C@H]3[NH]2)[O]C1=O` [Oxaliplatin, oxaliplatin]: the IC50 in data set [5] was 0.18 ± 0.01 µM; in data set [6], 0.98 ± 0.21 µM; in data set [7], 0.29 ± 0.05 µM.
With `N.N.[Cl][Pt][Cl]` [Cisplatin, cisplatin], the IC50 in data set [5] is 0.073 ± 0.001 µM; in data set [6] it was 3.8 ± 1 µM; in data set [7] it was 2.3 ± 0.2 µM.
